Numbered stars: 1 amine (or outer) side, 2 acyl side, 3 side chain; on linkers, the order of the positions; unused ones are H or OH. Side chains are listed from the residue outwards. Peptide text beside a SMILES is read from it. * marks the point of attachment. C18 diacid = O=C(O)CCCCCCCCCCCCCCCCC(=O)*; γGlu = O=C(O)[C@H](CCC(=O)[*:2])N[*:1]; AEEA = NCCOCCOCC(=O)O
test: Assay (II) PK i.v. minipig, in vivo half-life; parameters: species or system Göttingen mini-pigs; details: male, Göttingen, minipig, iv, Half-life minipig, Assay (II)
How it was run: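 Plasma levels after a single 6 nmol/kg intravenous dose in five male Göttingen mini-pigs were measured by TFC/LC/MS/MS against spiked-plasma calibration, sampling to 240 h. Vehicle: 50 mM K2HPO4, 0.05% tween 80, pH 8.0. Individual profiles analysed non-compartmentally for half-life.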

Compound | half-life
CC[C@H](C)[C@H](NC(=O)[C@H](Cc1ccc(O)cc1)NC(=O)[C@H](CCCNC(=N)N)NC(=O)[C@H](CCCNC(=N)N)NC(=O)[C@H](CC(C)C)NC(=O)[C@H](CC(=O)O)NC(=O)[C@H](CCCCNC(=O)COCCOCCNC(=O)COCCOCCNC(=O)CC[C@H](NC(=O)CCCCCCCCCCCCCCCCC(=O)O)C(=O)O)NC(=O)[C@H](C)NC(=O)[C@H](Cc1ccc(O)cc1)NC(=O)[C@H](CCC(N)=O)NC(=O)[C@H](C)NC(=O)[C@H](CCSC)NC(=O)[C@H](CCC(N)=O)NC(=O)[C@H](CCC(=O)O)NC(=O)[C@@H]1CCCN1C(=O)[C@@H](NC(=O)[C@H](C)NC(=O)[C@H](CC(N)=O)NC(=O)[C@H](CC(=O)O)NC(=O)CNC(=O)[C@@H]1CCCN1C(=O)[C@H](Cc1ccc(O)cc1)NC(=O)[C@@H](NC(=O)[C@@H]1CCCN1C(=O)[C@H](CCC(=O)O)NC(=O)[C@@H](N)CC(C)C)C(C)C)[C@@H](C)O)C(=O)N[C@@H](CC(N)=O)C(=O)N[C@@H](CCSC)C(=O)N[C@@H](CC(C)C)C(=O)N[C@H](C(=O)N[C@@H](CCCNC(=N)N)C(=O)N1CCC[C@H]1C(=O)N[C@@H](CCCNC(=N)N)C(=O)N[C@@H](Cc1ccc(O)cc1)C(N)=O)[C@@H](C)O [Compound AT] (H-LEPVYPGDNATPEQMAQYAK([AEEA-AEEA-γGlu-C18 diacid])DLRRYINMLTRPRY-NH2; N-terminus and C-terminus assumed) | 34 h
CC[C@H](C)[C@H](NC(=O)[C@H](Cc1ccc(O)cc1)NC(=O)[C@H](CCCNC(=N)N)NC(=O)[C@H](CCCNC(=N)N)NC(=O)[C@H](CC(C)C)NC(=O)[C@H](CC(=O)O)NC(=O)[C@H](C)NC(=O)[C@H](CCCCNC(=O)COCCOCCNC(=O)COCCOCCNC(=O)CC[C@H](NC(=O)CCCCCCCCCCCCCCCCC(=O)O)C(=O)O)NC(=O)[C@H](Cc1ccc(O)cc1)NC(=O)[C@H](CCC(N)=O)NC(=O)[C@H](C)NC(=O)[C@H](CCSC)NC(=O)[C@H](CCC(N)=O)NC(=O)[C@H](CCC(=O)O)NC(=O)[C@@H]1CCCN1C(=O)[C@@H](NC(=O)[C@H](C)NC(=O)[C@H](CC(N)=O)NC(=O)[C@H](CC(=O)O)NC(=O)CNC(=O)[C@@H]1CCCN1C(=O)[C@H](Cc1ccc(O)cc1)NC(=O)[C@@H](NC(=O)[C@@H]1CCCN1C(=O)[C@H](CCC(=O)O)NC(=O)[C@@H](N)CC(C)C)C(C)C)[C@@H](C)O)C(=O)N[C@@H](CC(N)=O)C(=O)N[C@@H](CCSC)C(=O)N[C@@H](CC(C)C)C(=O)N[C@H](C(=O)N[C@@H](CCCNC(=N)N)C(=O)N1CCC[C@H]1C(=O)N[C@@H](CCCNC(=N)N)C(=O)N[C@@H](Cc1ccc(O)cc1)C(N)=O)[C@@H](C)O [Compound AU] (H-LEPVYPGDNATPEQMAQYK([AEEA-AEEA-γGlu-C18 diacid])ADLRRYINMLTRPRY-NH2; N-terminus and C-terminus assumed) | 59 h
CC[C@H](C)[C@H](NC(=O)[C@H](Cc1ccc(O)cc1)NC(=O)[C@H](CCCNC(=N)N)NC(=O)[C@H](CCCNC(=N)N)NC(=O)[C@H](CC(C)C)NC(=O)[C@H](CC(=O)O)NC(=O)[C@H](C)NC(=O)[C@H](C)NC(=O)[C@H](CCCCNC(=O)COCCOCCNC(=O)COCCOCCNC(=O)CC[C@H](NC(=O)CCCCCCCCCCCCCCCCC(=O)O)C(=O)O)NC(=O)[C@H](CCC(N)=O)NC(=O)[C@H](C)NC(=O)[C@H](CCSC)NC(=O)[C@H](CCC(N)=O)NC(=O)[C@H](CCC(=O)O)NC(=O)[C@@H]1CCCN1C(=O)[C@@H](NC(=O)[C@H](C)NC(=O)[C@H](CC(N)=O)NC(=O)[C@H](CC(=O)O)NC(=O)CNC(=O)[C@@H]1CCCN1C(=O)[C@H](Cc1ccc(O)cc1)NC(=O)[C@@H](NC(=O)[C@@H]1CCCN1C(=O)[C@H](CCC(=O)O)NC(=O)[C@@H](N)CC(C)C)C(C)C)[C@@H](C)O)C(=O)N[C@@H](CC(N)=O)C(=O)N[C@@H](CCSC)C(=O)N[C@@H](CC(C)C)C(=O)N[C@H](C(=O)N[C@@H](CCCNC(=N)N)C(=O)N1CCC[C@H]1C(=O)N[C@@H](CCCNC(=N)N)C(=O)N[C@@H](Cc1ccc(O)cc1)C(N)=O)[C@@H](C)O [Compound AV] (H-LEPVYPGDNATPEQMAQK([AEEA-AEEA-γGlu-C18 diacid])AADLRRYINMLTRPRY-NH2; N-terminus and C-terminus assumed) | 28 h

The next lines start with the values.

half-life | Compound
33 h | CC[C@H](C)[C@H](NC(=O)[C@H](Cc1ccc(O)cc1)NC(=O)[C@H](CCCNC(=N)N)NC(=O)[C@H](CCCNC(=N)N)NC(=O)[C@H](CC(C)C)NC(=O)[C@H](CC(=O)O)NC(=O)[C@H](C)NC(=O)[C@H](C)NC(=O)[C@H](Cc1ccc(O)cc1)NC(=O)[C@H](CCCCNC(=O)COCCOCCNC(=O)COCCOCCNC(=O)CC[C@H](NC(=O)CCCCCCCCCCCCCCCCC(=O)O)C(=O)O)NC(=O)[C@H](C)NC(=O)[C@H](CCSC)NC(=O)[C@H](CCC(N)=O)NC(=O)[C@H](CCC(=O)O)NC(=O)[C@@H]1CCCN1C(=O)[C@@H](NC(=O)[C@H](C)NC(=O)[C@H](CC(N)=O)NC(=O)[C@H](CC(=O)O)NC(=O)CNC(=O)[C@@H]1CCCN1C(=O)[C@H](Cc1ccc(O)cc1)NC(=O)[C@@H](NC(=O)[C@@H]1CCCN1C(=O)[C@H](CCC(=O)O)NC(=O)[C@@H](N)CC(C)C)C(C)C)[C@@H](C)O)C(=O)N[C@@H](CC(N)=O)C(=O)N[C@@H](CCSC)C(=O)N[C@@H](CC(C)C)C(=O)N[C@H](C(=O)N[C@@H](CCCNC(=N)N)C(=O)N1CCC[C@H]1C(=O)N[C@@H](CCCNC(=N)N)C(=O)N[C@@H](Cc1ccc(O)cc1)C(N)=O)[C@@H](C)O [Compound AW] (H-LEPVYPGDNATPEQMAK([AEEA-AEEA-γGlu-C18 diacid])YAADLRRYINMLTRPRY-NH2; N-terminus and C-terminus assumed)
25 h | CC[C@H](C)[C@H](NC(=O)[C@H](Cc1ccc(O)cc1)NC(=O)[C@H](CCCNC(=N)N)NC(=O)[C@H](CCCNC(=N)N)NC(=O)[C@H](CC(C)C)NC(=O)[C@H](CC(=O)O)NC(=O)[C@H](C)NC(=O)[C@H](C)NC(=O)[C@H](Cc1ccc(O)cc1)NC(=O)[C@H](CCC(N)=O)NC(=O)[C@H](C)NC(=O)[C@H](CCCCNC(=O)COCCOCCNC(=O)COCCOCCNC(=O)CC[C@H](NC(=O)CCCCCCCCCCCCCCCCC(=O)O)C(=O)O)NC(=O)[C@H](CCC(N)=O)NC(=O)[C@H](CCC(=O)O)NC(=O)[C@@H]1CCCN1C(=O)[C@@H](NC(=O)[C@H](C)NC(=O)[C@H](CC(N)=O)NC(=O)[C@H](CC(=O)O)NC(=O)CNC(=O)[C@@H]1CCCN1C(=O)[C@H](Cc1ccc(O)cc1)NC(=O)[C@@H](NC(=O)[C@@H]1CCCN1C(=O)[C@H](CCC(=O)O)NC(=O)[C@@H](N)CC(C)C)C(C)C)[C@@H](C)O)C(=O)N[C@@H](CC(N)=O)C(=O)N[C@@H](CCSC)C(=O)N[C@@H](CC(C)C)C(=O)N[C@H](C(=O)N[C@@H](CCCNC(=N)N)C(=O)N1CCC[C@H]1C(=O)N[C@@H](CCCNC(=N)N)C(=O)N[C@@H](Cc1ccc(O)cc1)C(N)=O)[C@@H](C)O [Compound AY] (H-LEPVYPGDNATPEQK([AEEA-AEEA-γGlu-C18 diacid])AQYAADLRRYINMLTRPRY-NH2; N-terminus and C-terminus assumed)

From patent publication US20150141336A1, “Pancreatic Peptide Compounds and Use” (Novo Nordisk A/S, priority 2012, published 2015)
